# Results as given in ChEMBL document CHEMBL4732045, “Amide Bond Bioisosteres: Strategies, Synthesis, and Successes” (J Med Chem, 2020).
# Square brackets hold non-standard residues; d marks the D form. Peptide text beside a SMILES is read from it. PhLac = O=C(O)[C@@H](O)Cc1ccccc1
# Key:
# [1] = biological target: Delta-type opioid receptor (Mus musculus, UniProt P32300); experiment: Inhibition of [3H]-Deltorphin 2 binding to mouse delta opioid receptor expressed in rat GH3 cell membranes by Cheng-Prusoff analysis; design: species or system Cell membrane
# [2] = tested on: Poly(dA-dT)oligonucleotide; experiment: Binding affinity to poly (dA-dT) (unknown origin) by ethidium displacement assay; format: nucleic-acid assay
# [3] = tested on: Poly(dG-dC)oligonucleotide; experiment: Binding affinity to poly (dG-dC) (unknown origin) by ethidium displacement assay; format: nucleic-acid assay
# [4] = Inhibition of ACAT in cholesterol-fed New Zealand rabbit intestional microsomes using [1-14C]oleoyl-CoA as substrate preincubated for 5 mins followed by substrate addition and measured after 5 mins by liquid scintillation counting method; design: species or system Oryctolagus cuniculus, Intestine, Microsome
# [5] = tested on: Mus musculus; experiment: Immunosuppressive activity in B6D2F1 mouse model of graft-versus-host disease assessed as mean survival days at 3 mg/kg, ip administered for day 1 to day 10 (day 6 omitted) and measured at day 60; format: functional; conditions: time 60 day
# [6] = tested on: Rattus norvegicus; experiment: Immunosuppressive activity in Lewis rat model of Heart Allotransplantation assessed as mean survival days at 6 mg/kg, ip administered for 10 days by Manntel-Haenszel test; format: functional; conditions: time 10 day
# [7] = tested on: Mus musculus; experiment: Immunosuppressive activity in B6D2F1 mouse model of graft-versus-host disease assessed as mean survival days at 1 mg/kg, ip administered for day 1 to day 10 (day 6 omitted) and measured at day 60; format: functional; conditions: time 60 day
# [8] = biological target: D(2) dopamine receptor (Bos taurus) (UniProt P20288); experiment: Modulation of [3H]Spiroperidol/N-Propylnorapomorphine binding to dopamine D2 receptor in bovine striatal membranes incubated for 1 hr by Cheng-Prusoff analysis; format: cell membranes; conditions: Striatum, Membrane, filed as modulator
# [9] = biological target: D(2) dopamine receptor (Bos taurus) (UniProt P20288); experiment: Modulation of [3H]Spiroperidol/N-Propylnorapomorphine binding to dopamine D2 receptor in bovine striatal membranes incubated for 1 hr in presence of Gpp(NH)p by Cheng-Prusoff analysis; format: cell membranes; conditions: Striatum, Membrane, filed as modulator
# [10] = biological target: T1, Human immunodeficiency virus type 1 protease (Human immunodeficiency virus 1, UniProt Q72874); experiment: Inhibition of HIV1 protease
# [11] = Half life in monkey at 10 mg/kg, po; format: ADME, organism-based, Macaca mulatta; conditions: rhesus monkey, in vivo
# [12] = Oral bioavailability in monkey at 10 mg/kg; format: ADME, organism-based, Macaca mulatta; conditions: rhesus monkey, in vivo
# [13] = biological target: Neprilysin (Homo sapiens, UniProt P08473); experiment: Inhibition of NEP 24.11 (unknown origin) by fluorometric assay
# [14] = biological target: Stromelysin-1 (Homo sapiens, UniProt P08254); experiment: Inhibition of human MMP3 by fluorometric assay
# [15] = biological target: 72 kDa type IV collagenase (Homo sapiens, UniProt P08253); experiment: Inhibition of TNF-induced MMP2 isolated from human HT-1080 cell medium by fluorometric assay; format: tissue-based
# [16] = biological target: Interstitial collagenase (Homo sapiens, UniProt P03956); experiment: Inhibition of PMA-induced human skin fibroblast derived MMP1 by fluorometric assay; format: tissue-based
# [17] = biological target: Matrilysin (Homo sapiens, UniProt P09237); experiment: Inhibition of human MMP7 by fluorometric assay
# [18] = biological target: T1, Human immunodeficiency virus type 1 protease; experiment: Inhibition of HIV-1 protease
# [19] = tested on: L1210; experiment: Antiproliferative activity against mouse L1210 cells incubated for 48 hrs by Coulter counter method; format: functional, cell-based; conditions: L1210, 48 h
# [20] = tested on: HeLa; experiment: Antiproliferative activity against human HeLa cells incubated for 4 days by Coulter counter method; format: functional, cell-based; conditions: 96 h
# [21] = Growth inhibition of BAEC incubated for 3 days by Coulter counter method; conditions: Bos taurus, 72 h
# [22] = tested on: CCRF-CEM; experiment: Antiproliferative activity against human CEM cells incubated for 96 hrs by Coulter counter method; format: functional, cell-based
# [23] = tested on: HMEC-1; experiment: Growth inhibition of HMEC-1 incubated for 4 days by Coulter counter method; format: cell-based; conditions: Homo sapiens, HMEC-1, 96 h
# [24] = tested on: MDA-MB-231; experiment: Antiproliferative activity against human MDA-MB-231 cells; format: functional, cell-based
# [25] = biological target: Cannabinoid receptor 1 (Homo sapiens, UniProt P21554); experiment: Displacement of [3H]CP-55940 from human CB1 receptor expressed in HEK cells by competitive binding assay; format: cell-based
# [26] = Selectivity index, ratio of Ki for human CB1 receptor expressed in HEK cells to Ki for human CB2 receptor expressed in HEK cells
# [27] = biological target: Cannabinoid receptor 2 (Homo sapiens, UniProt P34972); experiment: Displacement of [3H]CP-55940 from human CB2 receptor expressed in HEK cells by competitive binding assay; format: cell-based
# [28] = tested on: PC-3; experiment: Cytotoxicity activity against human PC-3 cells incubated for 96 hrs by MTT method; format: functional, cell-based; conditions: PC-3, 96 h
# [29] = tested on: CAKI-2; experiment: Cytotoxicity against human Caki-2 cells incubated for 96 hrs by MTT assay; format: functional, cell-based; conditions: CAKI-2, 96 h
# [30] = tested on: HL-60; experiment: Cytotoxicity against human HL-60 cells incubated for 96 hrs by MTT assay; format: functional, cell-based; conditions: HL-60, 96 h
# [31] = tested on: HeLa; experiment: Cytotoxicity against human HeLa cells incubated for 96 hrs by MTT assay; format: functional, cell-based
# [32] = tested on: PC-3; experiment: Cytotoxicity against human PC-3 cells incubated for 96 hrs by MTT assay; format: functional, cell-based; conditions: PC-3, 96 h
# [33] = tested on: HL-60; experiment: Cytotoxicity activity against human HL-60 cells incubated for 96 hrs by MTT assay; format: functional, cell-based; conditions: HL-60, 96 h
# [34] = tested on: HT-29; experiment: Cytotoxicity against human HT-29 cells incubated for 96 hrs by MTT assay; format: functional, cell-based; conditions: HT-29, 96 h
# [35] = tested on: A549; experiment: Cytotoxicity against human A549 cells incubated for 96 hrs by MTT assay; format: functional, cell-based; conditions: A549, 96 h
# D(2) dopamine receptor (Bos taurus), sequence (P20288 whole entry): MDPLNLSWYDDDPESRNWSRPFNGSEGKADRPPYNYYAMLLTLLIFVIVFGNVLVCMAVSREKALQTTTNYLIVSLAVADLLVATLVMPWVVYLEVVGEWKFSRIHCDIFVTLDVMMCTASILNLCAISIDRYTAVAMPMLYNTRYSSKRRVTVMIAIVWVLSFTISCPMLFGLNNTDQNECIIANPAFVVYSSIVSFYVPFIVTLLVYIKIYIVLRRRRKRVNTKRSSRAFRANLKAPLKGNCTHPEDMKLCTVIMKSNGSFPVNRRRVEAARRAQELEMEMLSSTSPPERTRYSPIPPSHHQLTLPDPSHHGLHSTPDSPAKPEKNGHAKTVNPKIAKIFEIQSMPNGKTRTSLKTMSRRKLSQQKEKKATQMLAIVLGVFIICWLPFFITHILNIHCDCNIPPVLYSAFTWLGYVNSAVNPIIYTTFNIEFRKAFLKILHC
# Delta-type opioid receptor, sequence (P32300 whole entry): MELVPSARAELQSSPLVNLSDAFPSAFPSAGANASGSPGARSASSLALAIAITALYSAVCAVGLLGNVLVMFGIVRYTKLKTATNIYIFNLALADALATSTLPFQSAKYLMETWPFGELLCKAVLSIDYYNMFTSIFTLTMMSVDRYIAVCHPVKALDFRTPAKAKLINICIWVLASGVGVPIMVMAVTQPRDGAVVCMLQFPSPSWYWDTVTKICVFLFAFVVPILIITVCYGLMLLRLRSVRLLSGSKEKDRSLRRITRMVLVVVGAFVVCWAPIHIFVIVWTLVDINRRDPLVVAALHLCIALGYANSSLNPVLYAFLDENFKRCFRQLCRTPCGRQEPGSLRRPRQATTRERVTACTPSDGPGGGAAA
# Neprilysin, sequence (P08473 whole entry): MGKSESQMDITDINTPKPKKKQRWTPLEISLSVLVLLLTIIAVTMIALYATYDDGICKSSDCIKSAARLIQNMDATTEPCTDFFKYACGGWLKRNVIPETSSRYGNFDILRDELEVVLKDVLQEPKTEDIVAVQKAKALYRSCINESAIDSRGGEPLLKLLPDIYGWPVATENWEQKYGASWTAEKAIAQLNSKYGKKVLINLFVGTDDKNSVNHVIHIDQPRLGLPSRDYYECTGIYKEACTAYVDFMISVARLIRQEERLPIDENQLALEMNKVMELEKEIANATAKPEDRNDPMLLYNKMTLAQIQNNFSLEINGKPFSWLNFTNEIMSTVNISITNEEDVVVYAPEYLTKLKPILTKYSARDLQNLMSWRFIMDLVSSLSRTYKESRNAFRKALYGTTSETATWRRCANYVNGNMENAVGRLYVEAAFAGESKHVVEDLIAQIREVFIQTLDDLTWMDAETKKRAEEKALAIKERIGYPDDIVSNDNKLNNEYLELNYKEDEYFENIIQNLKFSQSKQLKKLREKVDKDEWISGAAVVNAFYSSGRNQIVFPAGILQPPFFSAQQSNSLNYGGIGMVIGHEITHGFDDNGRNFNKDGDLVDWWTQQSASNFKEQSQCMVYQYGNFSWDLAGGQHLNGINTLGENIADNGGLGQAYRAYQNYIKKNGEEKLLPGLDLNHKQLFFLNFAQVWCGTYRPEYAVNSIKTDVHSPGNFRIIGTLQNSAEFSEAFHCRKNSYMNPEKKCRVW
# Stromelysin-1, sequence (P08254 whole entry): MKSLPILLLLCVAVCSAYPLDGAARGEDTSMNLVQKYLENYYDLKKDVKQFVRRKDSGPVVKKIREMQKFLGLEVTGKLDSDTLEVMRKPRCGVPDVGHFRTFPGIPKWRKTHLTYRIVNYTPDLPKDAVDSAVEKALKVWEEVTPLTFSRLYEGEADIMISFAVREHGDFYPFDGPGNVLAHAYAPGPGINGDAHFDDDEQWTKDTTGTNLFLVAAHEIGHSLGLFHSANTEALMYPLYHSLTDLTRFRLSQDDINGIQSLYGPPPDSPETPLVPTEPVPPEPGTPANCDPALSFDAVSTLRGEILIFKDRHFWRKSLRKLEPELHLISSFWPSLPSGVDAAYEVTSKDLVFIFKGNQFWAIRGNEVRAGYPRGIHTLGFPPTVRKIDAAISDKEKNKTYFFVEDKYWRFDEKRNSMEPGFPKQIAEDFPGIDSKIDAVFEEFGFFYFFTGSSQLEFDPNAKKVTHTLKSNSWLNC
# Matrilysin, sequence (P09237 whole entry): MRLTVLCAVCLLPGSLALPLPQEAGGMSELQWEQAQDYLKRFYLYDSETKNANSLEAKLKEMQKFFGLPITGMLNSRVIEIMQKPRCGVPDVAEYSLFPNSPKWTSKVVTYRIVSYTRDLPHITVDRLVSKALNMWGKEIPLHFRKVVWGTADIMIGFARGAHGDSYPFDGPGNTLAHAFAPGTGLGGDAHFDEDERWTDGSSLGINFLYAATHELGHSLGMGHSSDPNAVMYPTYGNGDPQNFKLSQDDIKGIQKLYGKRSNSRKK
# 72 kDa type IV collagenase, sequence (P08253 whole entry): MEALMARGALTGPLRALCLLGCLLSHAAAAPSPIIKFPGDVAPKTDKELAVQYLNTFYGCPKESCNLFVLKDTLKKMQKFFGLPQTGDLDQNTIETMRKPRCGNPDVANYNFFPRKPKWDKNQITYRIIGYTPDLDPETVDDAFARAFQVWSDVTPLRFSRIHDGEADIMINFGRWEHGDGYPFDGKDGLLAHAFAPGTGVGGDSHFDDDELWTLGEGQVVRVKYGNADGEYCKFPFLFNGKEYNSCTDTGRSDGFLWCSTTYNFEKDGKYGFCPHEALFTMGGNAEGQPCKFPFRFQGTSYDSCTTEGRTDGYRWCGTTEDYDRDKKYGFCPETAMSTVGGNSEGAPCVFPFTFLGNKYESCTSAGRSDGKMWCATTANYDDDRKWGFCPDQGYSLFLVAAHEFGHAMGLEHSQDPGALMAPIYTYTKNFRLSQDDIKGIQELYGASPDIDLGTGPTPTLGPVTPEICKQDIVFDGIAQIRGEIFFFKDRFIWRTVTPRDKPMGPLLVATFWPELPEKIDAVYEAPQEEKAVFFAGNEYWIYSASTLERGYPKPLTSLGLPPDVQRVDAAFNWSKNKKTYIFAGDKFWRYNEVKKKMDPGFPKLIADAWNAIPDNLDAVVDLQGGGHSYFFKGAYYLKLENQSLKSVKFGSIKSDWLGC
# Interstitial collagenase, sequence (P03956 whole entry): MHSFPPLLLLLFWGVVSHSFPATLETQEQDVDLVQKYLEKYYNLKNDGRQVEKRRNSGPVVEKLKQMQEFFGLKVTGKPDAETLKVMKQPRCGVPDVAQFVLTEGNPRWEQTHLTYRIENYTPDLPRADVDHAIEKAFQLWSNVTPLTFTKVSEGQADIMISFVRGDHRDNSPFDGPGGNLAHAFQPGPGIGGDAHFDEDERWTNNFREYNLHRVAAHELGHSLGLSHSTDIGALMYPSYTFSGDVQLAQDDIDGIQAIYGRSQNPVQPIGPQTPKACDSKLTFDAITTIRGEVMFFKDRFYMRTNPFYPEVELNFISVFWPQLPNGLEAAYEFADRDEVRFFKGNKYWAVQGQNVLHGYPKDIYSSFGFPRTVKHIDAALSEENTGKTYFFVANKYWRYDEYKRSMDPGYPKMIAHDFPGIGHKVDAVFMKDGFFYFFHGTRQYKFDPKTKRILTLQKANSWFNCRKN
# Cannabinoid receptor 1, sequence (P21554 whole entry): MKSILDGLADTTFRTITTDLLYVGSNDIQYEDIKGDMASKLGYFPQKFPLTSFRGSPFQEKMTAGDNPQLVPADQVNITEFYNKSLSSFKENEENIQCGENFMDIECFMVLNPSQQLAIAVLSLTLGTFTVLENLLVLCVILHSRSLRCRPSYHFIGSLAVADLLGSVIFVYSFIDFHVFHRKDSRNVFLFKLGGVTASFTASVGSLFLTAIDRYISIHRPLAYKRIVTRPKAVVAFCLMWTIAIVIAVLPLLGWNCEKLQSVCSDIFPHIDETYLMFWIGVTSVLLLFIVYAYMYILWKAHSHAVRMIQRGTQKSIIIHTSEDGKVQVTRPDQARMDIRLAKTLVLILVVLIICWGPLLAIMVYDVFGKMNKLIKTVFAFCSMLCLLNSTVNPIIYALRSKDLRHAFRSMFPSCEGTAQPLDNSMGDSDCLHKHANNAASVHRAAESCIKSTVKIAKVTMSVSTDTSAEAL
# Cannabinoid receptor 2, sequence (P34972 whole entry): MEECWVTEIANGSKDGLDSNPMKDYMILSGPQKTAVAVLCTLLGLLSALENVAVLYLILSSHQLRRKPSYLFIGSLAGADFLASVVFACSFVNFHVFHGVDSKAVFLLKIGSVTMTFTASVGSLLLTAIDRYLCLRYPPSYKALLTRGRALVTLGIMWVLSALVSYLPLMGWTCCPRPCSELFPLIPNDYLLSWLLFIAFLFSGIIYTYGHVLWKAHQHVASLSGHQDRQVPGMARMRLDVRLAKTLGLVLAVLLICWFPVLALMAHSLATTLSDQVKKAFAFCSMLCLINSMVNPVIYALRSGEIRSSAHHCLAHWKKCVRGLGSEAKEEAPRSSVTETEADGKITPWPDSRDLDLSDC
smiles,measurement,setting,value
CC(C)C[C@H](NC(=O)[C@H](Cc1ccccc1)OC(=O)CNC(=O)CNC(=O)[C@@H](N)Cc1ccc(O)cc1)C(=O)O (H-YGG[PhLac]L-OH),Ki,[1],0.034 µM
CN(C)CCCNC(=O)c1cc(NC(=O)c2cc(/C=C/c3cc([N+](=O)[O-])cn3C)cn2C)cn1C,Kapp,[2],16.9 10^5/M
same,Kapp,[3],7.4 10^5/M
CCCCCCCCCCCCCCCCCNC(=O)Nc1c(OC)cc(OC)cc1OC,IC50,[4],0.32 µM
N=C(N)NCCCCCCNC(=O)COC(=O)NCCCCNCCCN,Survival,[5],58 days
same,Survival,[6],54 days
same,Survival,[7],46 days
CC(C)C[C@H](NC(=O)[C@H](Cc1ccccc1)N/C=C/NC(=O)CNC(=O)[C@@H](N)Cc1ccc(O)cc1)C(=O)O,Ki,[1],0.587 µM
CC(C)C[C@H](NC[C@@H]1CCCN1)C(=O)NCC(N)=O,KiH,[8],0.09 nM
same,KiL,[8],73.2 nM
same,KiH,[9],0.13 nM
same,KiL,[9],60 nM
CC(C)(C)NC(=O)[C@@H]1C[C@@H]2CCCC[C@@H]2CN1C[C@@H](O)[C@H](Cc1ccccc1)NC(=O)OC(C)(C)C,IC50,[10],≥ 3 µM
CC(C)C[C@@H](C(=O)NCC(N)=O)N1CC(=O)N2CCC[C@H]2C1=O,KiH,[8],0.08 nM
same,KiL,[8],120 nM
same,KiH,[9],0.12 nM
same,KiL,[9],172 nM
C=CC[C@H](C(=O)NO)[C@@H](CC(C)C)C(=O)N[C@@H](Cc1ccccc1)C(=O)c1c[nH]c2ccccc12,half-life,[11],20 h
same,bioavailability,[12],12%
O=C(O)CC(=O)N[C@H](CS)Cc1ccccc1,Ki,[13],0.21 µM
CC(C)C[C@H](NC(=O)[C@H](Cc1ccccc1)NC(=S)CNC(=O)CNC(=O)[C@@H](N)Cc1ccc(O)cc1)C(=O)O,Ki,[1],0.047 µM
C=CC[C@H](C(=O)NO)[C@@H](CC(C)C)C(=O)N[C@H](C(=O)NC)C(C)(C)C,IC50,[14],0.01 µM
same,IC50,[15],0.00085 µM
same,IC50,[16],0.0011 µM
same,IC50,[17],0.011 µM
same,half-life,[11],27 h
same,bioavailability,[12],15%
O=C(O)CC(=O)N[C@@H](CS)Cc1ccccc1,Ki,[13],0.0023 µM
CC(C)c1cccc(C(C)C)c1NC(=O)NCCCCCc1ccccc1,IC50,[4],0.017 µM
CC(C)(C)NS(=O)(=O)CC[C@@H]1O[C@@H]1[C@H](Cc1ccccc1)NC(=O)[C@@H](NC(=O)OCc1ccccc1)C(C)(C)S(C)(=O)=O,IC50,[18],0.0202 µM
Cn1cc(NC(=O)c2cc(NC(=O)c3cc(NC=O)cn3C)cn2C)cc1C(=O)NCCC(=N)N,Kapp,[2],345 10^5/M
same,Kapp,[3],1.3 10^5/M
CS(=O)(=O)c1ccc(-c2cn(-c3ccc(Cl)c(-c4ccccn4)c3)nn2)c(Cl)c1,IC50,[19],82 µM
same,IC50,[20],> 100 µM
same,IC50,[21],40 µM
same,IC50,[22],50 µM
same,IC50,[23],9.6 µM
COc1ccc(C(=O)NCc2ccc3c(c2)OCO3)cc1,IC50,[24],≥ 200 µM
CC(C)(C)NS(=O)(=O)CC[C@@H]1O[C@@H]1[C@H](Cc1ccccc1)NOC(=O)CCC(=O)NC(=O)c1ccc2ccccc2n1,IC50,[18],0.03 µM
CCCCCn1cc(-c2nnc(C34CC5CC(CC(C5)C3)C4)o2)c(=O)c2cc(-c3ccco3)ccc21,Ki,[25],> 10 µM
same,Ratio Ki,[26],>1543
same,Ki,[27],0.0065 µM
CCCCCCCCCCCCCC(=O)N[C@@H](CO)[C@H](O)c1ccc([N+](=O)[O-])cc1,IC50,[28],123 µM
same,IC50,[29],107 µM
same,IC50,[30],28 µM
same,IC50,[31],78 µM
same,IC50,[32],83 µM
same,IC50,[33],48 µM
same,IC50,[34],96 µM
same,IC50,[35],64 µM
CN(C)CCCNC(=O)c1cc(NC(=O)c2cc(NC(=O)c3cc([N+](=O)[O-])cn3C)cn2C)cn1C,Kapp,[2],8.7 10^5/M
same,Kapp,[3],3.5 10^5/M
